Source: patent US11015061B2, “Phthalocyanine-based compound and uses of same” (YAMAMOTO CHEMICALS, INC., priority 2017, dated 2021)

Legend:
Type in all cases: physicochemical
[1] = Heat resistance test of heat ray shielding film; conditions: 200 hours at 100° C., absorbance integrated 400 to 900 nm
Method: (§1) In the evaluation test, the release film was peeled from the produced heat ray shielding film, then the heat ray shielding film was compressed on a 5 cm×5 cm×3 mm (thickness) glass plate, and a test piece created in this way was used.
For a heat resistance test, the test piece used for measuring the spectrum before test as described above was treated with heat for 200 hours at a temperature of 100° C. in a thermostat (produced by Yamato Scientific co., ltd.: IG400). By using the spectrophotometer, the absorption spectrum of the heat-treated test piece was measured and adopted as a spectrum after heat resistance test.
(§2) In each of the spectra measured as above before and after the light fastness⋅heat resistance test, the values of absorbance within a range of 400 to 900 nm were integrated, and a difference between the integrated value before the light fastness⋅heat resistance test and the integrated value after the light fastness⋅heat resistance test was calculated.
(§3) The difference ΔE between the absorbance before the light fastness⋅heat resistance test and the absorbance after the light fastness⋅heat resistance test is expressed by the following equation. ΔE (%)={E(400 to 900 nm in E1)−E(400 to 900 nm in E2)}/E(400 to 900 nm in E1)×100
(§4) E1 represents the spectrum before test, E2 represents the spectrum after test, and Σ represents integration of the values of absorbance.
(§5) The larger the value of ΔE, the greater the spectrum change between before and after the light fastness⋅heat resistance test.

[2] = Heat resistance test of laminated glass; conditions: 200 hours at 100° C., absorbance integrated 400 to 900 nm
Method: (§6) The phthalocyanine-based compound (Specific Example (1)-30) produced in Example 1 (0.013 g) was dissolved in 40 g of triethylene glycol-di-2-ethylhexanoate as an organic ester plasticizer. The obtained solution was added to 100 g of a polyvinyl butyral resin (trade name: BH-3, produced by SEKISUI CHEMICAL CO., LTD.), thoroughly melted and kneaded using a mixing roll, and extruded using an extruder, thereby obtaining an interlayer having a thickness of 0.76 mm.
(§7) The interlayer was cut in size of 100 mm×100 mm, interposed between heat ray absorbing glass plates (100 mm (length)×100 mm (width)×2.0 mm (thickness)) prepared based on JIS R3208, put into a rubber bag, and deaerated for 20 minutes at a degree of vacuum of 2.6 kPa. Then, the deaerated laminate was moved into an oven and further hold for 30 minutes at 90° C. to vacuum press. Thereafter, the laminate was compressed for 20 minutes in an autoclave under the condition of a temperature of 130° C. and a pressure of 1.3 MPa, thereby obtaining a laminated glass sample.
For a heat resistance test, the laminated glass used for measuring the spectrum before test as described above was treated with heat for 200 hours at a temperature of 100° C. in a thermostat (produced by Yamato Scientific co., ltd.: IG400). By using the spectrophotometer, the absorption spectrum of the heat-treated laminated glass was measured and adopted as a spectrum after heat resistance test.
as §2, §3
(§8) E1 represents the spectrum before test, E2 represents the spectrum after test, and Σ represents integration of values of absorbance. The larger the value of ΔE, the greater the spectrum change between before and after the light fastness⋅heat resistance test.

[3] = Solubility in organic solvent (cyclopentanone); conditions: about 10 wt % dispersion, room temperature, 0.2 μm filter; no residue = 10 wt % or more
Method: The solubility of the phthalocyanine compound with respect to cyclopentanone was measured by the following method.
Cyclopentanone was added to about 1 g of the phthalocyanine compound such that the total weight thereof became about 10 g, and the obtained solution was irradiated with ultrasonic waves for about 30 minutes and then stirred for 2 hours at room temperature, thereby preparing a dispersion liquid of about 10 wt %.
The dispersion liquid was filtered through a membrane filter (0.2 μm), the substance obtained by filtration was dried for 1 hour in a drier at 60° C., and then the weight of the substance obtained by filtration was measured.
The solubility of the phthalocyanine compound in a solvent is expressed by the following equation. Solubility (wt %)=(W0−W1)/W0
W0 represents the correct weight of the phthalocyanine not yet being treated, and W1 represents the weight of the substance obtained by filtration (dissolved phthalocyanine compound residue) having been dried.

[4] = Light fastness test of laminated glass; conditions: xenon light 200 hours at 550 W/h, absorbance integrated 400 to 900 nm
Method: as §6, §7
For a light fastness test, the absorption spectrum of the laminated glass was measured using a spectrophotometer (produced by Hitachi, Ltd.: Spectrophotometer U-3500) and adopted as a spectrum before light fastness test. Then, the laminated glass used for measuring the spectrum before test was irradiated with light for 200 hours at 550 W/h by using a xenon light fastness tester (produced by Toyo Seiki Seisaku-sho, Ltd.: SUNTEST XLS+). The absorption spectrum of the laminated glass irradiated with light was measured using the spectrophotometer and adopted as a spectrum after light fastness test.
as §2, §3, §8

[5] = Tts of laminated glass sample; conditions: 0.76 mm PVB interlayer with 0.013 g compound per 100 g resin, JIS R3106
Method: as §6, §7
By using U-3500 type recording spectrophotometer produced by Hitachi, Ltd. as a measurement instrument, Tts of the laminated glass samples was measured based on JIS R3106 “Testing method for transmittance, reflectance, emissivity, and solar heat gain coefficient of flat glasses”.

[6] = Light fastness test of heat ray shielding film; conditions: xenon light 200 hours at 550 W/h, absorbance integrated 400 to 900 nm
Method: as §1
For a light fastness test, the absorption spectrum of the test piece was measured using a spectrophotometer (produced by Hitachi, Ltd.: Spectrophotometer U-3500) and adopted as a spectrum before light fastness test. Then, the test piece used for measuring the spectrum before test was irradiated with light for 200 hours at 550 W/h by using a xenon light fastness tester (produced by Toyo Seiki Seisaku-sho, Ltd.: SUNTEST XLS+). The absorption spectrum of the test piece irradiated with light was measured using the spectrophotometer and adopted as a spectrum after light fastness test.
as §2, §3, §4, §5

[7] = Tts (total solar transmittance) of heat ray shielding film; conditions: heat ray shielding film (5 g compound, 50 g acryl resin LP-45M, 2.5 μm on PET) on 3 mm glass plate; JIS R3106
Source text: The phthalocyanine compound (Specific Example (1)-30) produced in Example 1 (5 g), 50 g of an acryl resin LP-45M (trade name, produced by Soken Chemical & Engineering Co., Ltd.), 20 g of methyl ethyl ketone, and 20 g of toluene were mixed and stirred together, thereby producing a resin composition.
As a transparent substrate, a polyethylene terephthalate film (PET film) having a thickness of 100 μm was bar-coated with the resin composition such that the thickness thereof became 2.5 μm, and then the applied resin composition was dried for 3 minutes at 100° C. Furthermore, the other surface of the PET film (surface not being coated with the resin composition) was bar-coated with a transparent acryl copolymer-based pressure sensitive adhesive such that the thickness thereof became 20 μm, and the applied pressure sensitive adhesive was dried and cured for 3 minutes at 100° C. Thereafter, a release film was bonded to the surface of the pressure sensitive adhesive, thereby producing a heat ray shielding film.
as §1
By using U-3500 type recording spectrophotometer produced by Hitachi, Ltd. as a measurement instrument, Tts of the laminated glass sample was measured based on JIS R3106 “Testing method for transmittance, reflectance, emissivity, and solar heat gain coefficient of flat glasses”.
Tts (Total solar energy transmitted through a glazing) represents a total solar transmittance.

Row | SMILES | ΔE (%) Heat resistance [1] [%] | ΔE (%) Heat resistance [2] [%] | Solubility to cyclopentanone (wt %) [3] [% wt %] | ΔE (%) Light fastness [4] [%] | Tts [5] [%] | ΔE (%) Light fastness [6] [%] | Tts [7] [%]
1 | CCOCCCCc1ccc(CCCCOCC)c2c1-c1nc-2nc2[n-]c(nc3nc(nc4[n-]c(n1)c1c(CCCCOCC)ccc(CCCCOCC)c41)-c1c(CCCCOCC)ccc(CCCCOCC)c1-3)c1c(CCCCOCC)ccc(CCCCOCC)c21.[O]=[V+2] [Specific Example (1)-33] | 2 | 3 | ≥10 | 2 | 51.5 | 3 | 85.8
2 | COCCCCc1ccc(CCCCOC)c2c1-c1nc-2nc2[n-]c(nc3nc(nc4[n-]c(n1)c1c(CCCCOC)ccc(CCCCOC)c41)-c1c(CCCCOC)ccc(CCCCOC)c1-3)c1c(CCCCOC)ccc(CCCCOC)c21.[Cu+2] [Specific Example (1)-31] | 3 | 2 | ≥10 | 3 | 51.5 | 3 | 86
3 | COc1cccc(OCCCCc2ccc(CCCCOc3cccc(OC)c3)c3c2-c2nc-3nc3[n-]c(nc4nc(nc5[n-]c(n2)c2c(CCCCOc6cccc(OC)c6)ccc(CCCCOc6cccc(OC)c6)c52)-c2c(CCCCOc5cccc(OC)c5)ccc(CCCCOc5cccc(OC)c5)c2-4)c2c(CCCCOc4cccc(OC)c4)ccc(CCCCOc4cccc(OC)c4)c32)c1.[Cu+2] [Specific Example (1)-40] | 3 | 2 | ≥10 | 2 | 52 | 2 | 85.9
4 | COc1cccc(OCCCCc2ccc(CCCCOc3cccc(OC)c3)c3c2-c2nc-3nc3[n-]c(nc4nc(nc5[n-]c(n2)c2c(CCCCOc6cccc(OC)c6)ccc(CCCCOc6cccc(OC)c6)c52)-c2c(CCCCOc5cccc(OC)c5)ccc(CCCCOc5cccc(OC)c5)c2-4)c2c(CCCCOc4cccc(OC)c4)ccc(CCCCOc4cccc(OC)c4)c32)c1.[O]=[V+2] [Specific Example (1)-39] | 3 | 3 | ≥10 | 4 | 52.7 | 4 | 85.9
